The format of the data set is physicochemical. The source says:
In many high output meat packing plants, space to install the biocide feeder in an easily accessible location is not readily available. The smaller area required for a BCDMH feeder system relative to a DBDMH system, is advantageous with respect to installation flexibility. For example, because of higher bromine output, a plant utilizing BCDMH may utilize a smaller number of biocide feeders than a plant utilizing DBDMH feeders. Also, because each point of application of aqueous biocide in the plant requires a certain bromine residual in a certain flow of water, the much higher output of bromine from a BCDMH feeder to achieve the desired bromine residual, requires much less water flow to the feeder for BCDMH than DBDMH. Since the source of water and the feeder are often quite distant from each other, a need for providing a new line just for the feeder is disadvantageous and expensive. But, pursuant to this invention, oftentimes excess water supplied to existing equipment near the feeder can be employed thereby eliminating the need for installation of a new special water line to the feeder. In other words, since BCDMH requires less than half the water flow of DBDMH, in many situations this water source would have sufficient flow for BCDMH while that same flow would be insufficient for DBDMH. […]

Structures are written as SMILES.

`CC1(C)C(=O)N(Cl)C(=O)N1Br` [BCDMH, N,N′-bromochloro-5,5-dimethylhydantoin]: the water solubility worked out at 890 ppm. Consider `CC1(C)C(=O)N(Br)C(=O)N1Br` [DBDMH, 1,3-dibromo-5,5-dimethylhydantoin], for which the water solubility worked out at 405 ppm.

Values taken from patent publication US8002614B2, “Microbiocidal control in the processing of meat-producing four-legged animals” (priority 2005, dated 2011).
